# Assay results published in patent US7449477B2, “7-phenyl-isoquinoline-5-sulfonylamino derivatives as inhibitors of akt (protein kinase B)” (Eli Lilly and Company, priority 2003, dated 2008).
# Structures can show the parent of a compound that is named as a salt.
# Target: T1, active human Akt1 (Homo sapiens, UniProt P31749)
# T1 construct: Active human recombinant Akt1 (full-length) purified from Sf9 insect cells; purchased Upstate Biotechnology, Inc. 14-276; host or cells: Sf9 insect cells
# Assay: Akt1 Phosphorylation Assay (phosphocellulose filter-binding, 33P-Crosstide)
# Format: biochemical
# Conditions: active human recombinant Akt1 (full-length) 10 nM; 12.5 μM Crosstide; 20 μM ATP; 30 minutes at room temperature
# Summary of the method: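 Full-length active human Akt1 (Sf9-expressed, 10 nM) phosphorylated 12.5 μM Crosstide with 20 μM ATP plus 1 μCi γ-33P-ATP in 35 mM HEPES pH 7.3, 15 mM MgCl2, 0.4 mM DTT, 4% DMSO. After 30 min at room temperature, H3PO4-stopped reactions were captured on phosphocellulose filters, washed and scintillation-counted.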
# T1 sequence (P31749 whole entry): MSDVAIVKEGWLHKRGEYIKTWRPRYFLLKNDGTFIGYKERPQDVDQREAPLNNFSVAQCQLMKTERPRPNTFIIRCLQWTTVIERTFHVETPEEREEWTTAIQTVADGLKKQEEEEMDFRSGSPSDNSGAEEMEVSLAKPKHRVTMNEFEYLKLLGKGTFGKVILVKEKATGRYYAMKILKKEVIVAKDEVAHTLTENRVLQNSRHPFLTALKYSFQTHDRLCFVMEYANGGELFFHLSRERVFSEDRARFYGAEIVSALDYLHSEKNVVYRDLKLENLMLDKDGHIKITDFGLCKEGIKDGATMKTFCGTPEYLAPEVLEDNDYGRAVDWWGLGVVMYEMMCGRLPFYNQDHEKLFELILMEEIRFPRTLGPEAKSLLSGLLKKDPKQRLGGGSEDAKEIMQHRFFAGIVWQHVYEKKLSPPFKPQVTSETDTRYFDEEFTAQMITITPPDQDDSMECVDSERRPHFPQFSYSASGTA
row,IC50 [nM],SMILES
1,≤ 2000,"O=[N+]([O-])c1ccc(CCCNCCNS(=O)(=O)c2cc(-c3cccc(F)c3)cc3cnccc23)cc1 [Example 93, 7-(3-fluorophenyl)-isoquinoline-5-sulfonic acid [2-(3-(4-nitrophenyl)-propylamino)-ethyl]-amide]"
2,≤ 2000,"O=S(=O)(NCCNCCCc1ccc(Cl)cc1C1CCNCC1)c1cc(-c2ccccc2)cc2cnccc12 [Example 53, 7-Phenyl-isoquinoline-5-sulfonic acid {2-[3-(4-chloro-2-(piperidin-4-yl)-phenyl)-propylamino]-ethyl}-amide, trihydrochloride salt]"
3,≤ 2000,"CN(C)S(=O)(=O)c1ccc(CCCNCCNS(=O)(=O)c2cc(-c3ccccc3)cc3cnccc23)cc1 [Example 24, 7-Phenyl-isoquinoline-5-sulfonic acid {2-[3-(4-(N,N-dimethyl-aminosulfonyl)phenyl)-propyl-amino]-ethyl}-amide, dihydrochloride salt]"
